{
  "source": "patent US20200360364A1",
  "about": "“METHODS AND COMPOSITIONS FOR TREATING INFLAMMATORY OR AUTOIMMUNE DISEASES OR CONDITIONS USING CHRNA6 ACTIVATORS” (Flagship Pioneering Innovations V, Inc., priority 2018, published 2020)",
  "system": "iTreg-mediated immunosuppression of CD8+ T-cell activation",
  "type": "cell-based, human",
  "settings": "for Fold Change % IFNγ+ CD8+ Relative to No Compound Condition: 2 nM final concentration",
  "note": "Where two headings read alike, the source gives them in different places.",
  "data": [
    {"smiles": "CN1CCCC1c1cccnc1", "note": "(stereo not shown) [nicotine]", "values": [
      {"measurement": "Fold Change % IFNγ+ CD8+ Relative to No Compound Condition", "setting": "donor BX23981, CD4+ T-cell:CD8+ T-cell ratio 1:2", "value": "1.20 ± 0.038"},
      {"measurement": "Fold Change % IFNγ+ CD8+ Relative to No Compound Condition", "setting": "donor BX23981, CD4+ T-cell:CD8+ T-cell ratio 2:1", "value": "0.88 ± 0.035"},
      {"measurement": "Fold Change % IFNγ+ CD8+ Relative to No Compound Condition", "setting": "donor BX24250, CD4+ T-cell:CD8+ T-cell ratio 1:2", "value": "0.84 ± 0.10"},
      {"measurement": "Fold Change % IFNγ+ CD8+ Relative to No Compound Condition", "setting": "donor BX24250, CD4+ T-cell:CD8+ T-cell ratio 2:1", "value": "1.07 ± 0.046"},
      {"measurement": "Fold Change % IFNγ+ CD8+ Relative to No Compound Condition", "setting": "donor BX26425, CD4+ T-cell:CD8+ T-cell ratio 1:1", "value": "0.31 ± 0.089"},
      {"measurement": "Fold Change % IFNγ+ CD8+ Relative to No Compound Condition", "setting": "donor BX26425, CD4+ T-cell:CD8+ T-cell ratio 1:2", "value": "0.42 ± 0.044"},
      {"measurement": "Fold Change % IFNγ+ CD8+ Relative to No Compound Condition", "setting": "donor BX26425, CD4+ T-cell:CD8+ T-cell ratio 2:1", "value": "0.18 ± 0.11"},
      {"measurement": "Fold Change % IFNγ+ CD8+ Relative to No Compound Condition", "setting": "donor BX26825, CD4+ T-cell:CD8+ T-cell ratio 1:1", "value": "0.70 ± 0.10"},
      {"measurement": "Fold Change % IFNγ+ CD8+ Relative to No Compound Condition", "setting": "donor BX26825, CD4+ T-cell:CD8+ T-cell ratio 1:2", "value": "0.91 ± 0.14"},
      {"measurement": "Fold Change % IFNγ+ CD8+ Relative to No Compound Condition", "setting": "donor BX27275, CD4+ T-cell:CD8+ T-cell ratio 1:1", "value": "1.16 ± 0.12"},
      {"measurement": "Fold Change % IFNγ+ CD8+ Relative to No Compound Condition", "setting": "donor BX27275, CD4+ T-cell:CD8+ T-cell ratio 2:1", "value": "1.38 ± 0.41"},
      {"measurement": "Fold Change % IFNγ+ CD8+ Relative to No Compound Condition", "setting": "donor BX27275, CD4+ T-cell:CD8+ T-cell ratio 2:1 (first line)", "value": "0.9 ± 0.12"},
      {"measurement": "IFNγ+CD8+ T-cells in co-culture", "setting": "final concentration of 2 nM, added at beginning of iTreg/CD8+ co-culture, read three days after co-culture", "value": "trend of decreasing IFNγ+CD8+ T-cells"}
    ]}
  ]
}
